From ChEMBL document CHEMBL4689842, “EUbOPEN Chemogenomics Library wave 1” (2021)

How the values were obtained:
Format in all cases: toxicity, cell-based
[1] = tested on: Fibroblast; assay: Incucyte cell viability with human fibroblast; conditions: 10 µM, compound concentration 10 uM
[2] = tested on: HEK-293T; assay: Incucyte cell viability with HEK293T; conditions: human, 10 µM, compound concentration 10 uM
[3] = tested on: U2OS; assay: Incucyte cell viability with U2OS; conditions: human, 10 µM, compound concentration 10 uM
[4] = 0 h, replicate number 1, timepoint 0 hours
[5] = 6 h, replicate number 1, timepoint 6 hours
[6] = 6 h, replicate number 2, timepoint 6 hours
[7] = 12 h, replicate number 1, timepoint 12 hours
[8] = 12 h, replicate number 2, timepoint 12 hours
[9] = 18 h, replicate number 1, timepoint 18 hours
[10] = 18 h, replicate number 2, timepoint 18 hours
[11] = 24 h, replicate number 1, timepoint 24 hours
[12] = 24 h, replicate number 2, timepoint 24 hours
[13] = 0 h, replicate number 2, timepoint 0 hours
Note: filed as whole numbers so only -1 and 0 and 1 occur.

Q: For `CC1(C)CCC(C)(C)c2cc(C(=O)Nc3ccc(C(=O)O)cc3)ccc21`, which “Growth Rate” value [1, 4] is on record?
A: 0

Q: What about the “Growth Rate” value [1, 5] of the same molecule?
A: 1

Q: What about the “Growth Rate” value [1, 6] of the same molecule?
A: 0

Q: What about the “Growth Rate” value [1, 7] of the same molecule?
A: 1

Q: What about the “Growth Rate” value [1, 8] of the same molecule?
A: 0

Q: And the “Growth Rate” value [1, 9]?
A: 1

Q: What about the “Growth Rate” value [1, 10] of the same molecule?
A: 0

Q: What about the “Growth Rate” value [1, 11] of the same molecule?
A: 1

Q: What about the “Growth Rate” value [2, 4] of the same molecule?
A: 0

Q: What about the “Growth Rate” value [2, 5] of the same molecule?
A: 1

Q: What about the “Growth Rate” value [2, 7] of the same molecule?
A: 1

Q: What about the “Growth Rate” value [2, 9] of the same molecule?
A: 1

Q: And the “Growth Rate” value [2, 11]?
A: 1

Q: What about the “Growth Rate” value [3, 4] of the same molecule?
A: 0

Q: What about the “Growth Rate” value [3, 6] of the same molecule?
A: 1

Q: What about the “Growth Rate” value [3, 7] of the same molecule?
A: 1

Q: What about the “Growth Rate” value [3, 9] of the same molecule?
A: 1

Q: What about the “Growth Rate” value [3, 11] of the same molecule?
A: 1

Q: With `Cc1ccccc1C(=O)Nc1ccc(C(=O)N2CCCC(O)c3cc(Cl)ccc32)c(C)c1` (stereo not drawn) [TOLVAPTAN] as the molecule, how does the “Growth Rate” value [1, 4] read?
A: 1

Q: What about the “Growth Rate” value [1, 5] of the same molecule?
A: 0

Q: What about the “Growth Rate” value [1, 7] of the same molecule?
A: 1

Q: And the “Growth Rate” value [1, 8]?
A: 0

Q: What about the “Growth Rate” value [1, 9] of the same molecule?
A: 1

Q: And the “Growth Rate” value [1, 10]?
A: 0

Q: What about the “Growth Rate” value [1, 11] of the same molecule?
A: 1

Q: And the “Growth Rate” value [1, 12]?
A: 0

Q: What about the “Growth Rate” value [2, 4] of the same molecule?
A: 1

Q: What about the “Growth Rate” value [2, 13] of the same molecule?
A: 0

Q: And the “Growth Rate” value [2, 5]?
A: 0

Q: What about the “Growth Rate” value [2, 7] of the same molecule?
A: 0

Q: What about the “Growth Rate” value [2, 9] of the same molecule?
A: 0

Q: What about the “Growth Rate” value [2, 11] of the same molecule?
A: 0

Q: And the “Growth Rate” value [3, 5]?
A: 0

Q: What about the “Growth Rate” value [3, 7] of the same molecule?
A: 0

Q: What about the “Growth Rate” value [3, 9] of the same molecule?
A: 0

Q: And the “Growth Rate” value [3, 11]?
A: 1

Q: Which results are given for `O=C(NCC(=O)N1CCCC1)Nc1ccc2cnccc2c1`?
A: Growth Rate [1, 13]: 0; Growth Rate [1, 5]: 0; Growth Rate [1, 7]: 0; Growth Rate [1, 8]: 1; Growth Rate [1, 9]: 0; Growth Rate [1, 10]: 1; Growth Rate [1, 11]: 0; Growth Rate [1, 12]: 1; Growth Rate [2, 4]: 0; Growth Rate [2, 6]: 0; Growth Rate [2, 8]: 0; Growth Rate [2, 10]: 1; Growth Rate [2, 11]: 1; Growth Rate [2, 12]: 0; Growth Rate [3, 4]: 0; Growth Rate [3, 5]: 1; Growth Rate [3, 6]: 0; Growth Rate [3, 7]: 1; Growth Rate [3, 8]: 0; Growth Rate [3, 9]: 1; Growth Rate [3, 11]: 1

Q: For `Cl.Clc1ccc(CCCOCCCN2CCCCC2)cc1` [PITOLISANT HYDROCHLORIDE], which “Growth Rate” value [1, 4] is on record?
A: 0

Q: And the “Growth Rate” value [1, 9]?
A: 1

Q: And the “Growth Rate” value [1, 11]?
A: 1

Q: What about the “Growth Rate” value [2, 13] of the same molecule?
A: 0

Q: And the “Growth Rate” value [2, 5]?
A: 0

Q: And the “Growth Rate” value [2, 7]?
A: 0

Q: And the “Growth Rate” value [2, 9]?
A: 0

Q: And the “Growth Rate” value [2, 11]?
A: 0

Q: And the “Growth Rate” value [3, 4]?
A: 0

Q: And the “Growth Rate” value [3, 7]?
A: 1

Q: And the “Growth Rate” value [3, 9]?
A: 1

Q: What about the “Growth Rate” value [3, 11] of the same molecule?
A: 1

Q: `Cc1noc([C@H]2C[C@@H](c3ccc(C(F)(F)F)cc3)CN(C(=O)N3CCS(=O)(=O)C3)C2)n1` [BAY-448] was tested. Which “Growth Rate” value [1, 4] did it give?
A: 0

Q: And the “Growth Rate” value [1, 5]?
A: 1

Q: What about the “Growth Rate” value [1, 6] of the same molecule?
A: 0

Q: And the “Growth Rate” value [1, 7]?
A: 1

Q: What about the “Growth Rate” value [1, 9] of the same molecule?
A: 0

Q: And the “Growth Rate” value [1, 11]?
A: 0

Q: What about the “Growth Rate” value [1, 12] of the same molecule?
A: 1

Q: What about the “Growth Rate” value [2, 4] of the same molecule?
A: 1

Q: And the “Growth Rate” value [2, 13]?
A: 0

Q: And the “Growth Rate” value [2, 5]?
A: 0

Q: And the “Growth Rate” value [2, 6]?
A: 1

Q: And the “Growth Rate” value [2, 7]?
A: 0

Q: What about the “Growth Rate” value [2, 8] of the same molecule?
A: 1

Q: And the “Growth Rate” value [2, 9]?
A: 0

Q: What about the “Growth Rate” value [2, 11] of the same molecule?
A: 0

Q: And the “Growth Rate” value [3, 4]?
A: 0

Q: And the “Growth Rate” value [3, 6]?
A: 1

Q: What about the “Growth Rate” value [3, 7] of the same molecule?
A: 1

Q: What about the “Growth Rate” value [3, 9] of the same molecule?
A: 0

Q: What about the “Growth Rate” value [3, 10] of the same molecule?
A: 1

Q: And the “Growth Rate” value [3, 11]?
A: 0

Q: What about the “Growth Rate” value [3, 12] of the same molecule?
A: 1

Q: Which “Growth Rate” value [1, 4] does the source give for `Cn1c(CNc2cccc(C(=O)NCc3ccccc3C(F)(F)F)c2)nnc1-c1ccncc1` here?
A: 1

Q: What about the “Growth Rate” value [1, 13] of the same molecule?
A: 0

Q: And the “Growth Rate” value [1, 5]?
A: 0

Q: And the “Growth Rate” value [1, 7]?
A: 0

Q: And the “Growth Rate” value [1, 9]?
A: 0

Q: And the “Growth Rate” value [1, 11]?
A: 0

Q: And the “Growth Rate” value [2, 4]?
A: 0

Q: What about the “Growth Rate” value [2, 12] of the same molecule?
A: 1

Q: And the “Growth Rate” value [3, 13]?
A: 0

Q: And the “Growth Rate” value [3, 5]?
A: 0

Q: What about the “Growth Rate” value [3, 7] of the same molecule?
A: 0

Q: What about the “Growth Rate” value [3, 8] of the same molecule?
A: 1

Q: What about the “Growth Rate” value [3, 9] of the same molecule?
A: 0

Q: What about the “Growth Rate” value [3, 11] of the same molecule?
A: 0

Q: For `CCOC(=O)CCNc1cc(N2CCc3ccccc3CC2)nc(-c2cccnc2)n1`, which “Growth Rate” value [1, 13] is on record?
A: 1

Q: And the “Growth Rate” value [1, 5]?
A: 1

Q: And the “Growth Rate” value [1, 6]?
A: 0

Q: And the “Growth Rate” value [1, 7]?
A: 1

Q: And the “Growth Rate” value [1, 9]?
A: 1

Q: And the “Growth Rate” value [1, 10]?
A: 0

Q: And the “Growth Rate” value [1, 11]?
A: 1

Q: And the “Growth Rate” value [2, 13]?
A: 1

Q: What about the “Growth Rate” value [2, 5] of the same molecule?
A: 0

Q: What about the “Growth Rate” value [2, 7] of the same molecule?
A: 0

Q: What about the “Growth Rate” value [2, 9] of the same molecule?
A: 0

Q: What about the “Growth Rate” value [2, 11] of the same molecule?
A: 0

Q: What about the “Growth Rate” value [3, 13] of the same molecule?
A: 0

Q: What about the “Growth Rate” value [3, 5] of the same molecule?
A: 1

Q: And the “Growth Rate” value [3, 7]?
A: 1

Q: What about the “Growth Rate” value [3, 8] of the same molecule?
A: 0

Q: And the “Growth Rate” value [3, 9]?
A: 1

Q: And the “Growth Rate” value [3, 10]?
A: 0

Q: And the “Growth Rate” value [3, 11]?
A: 1

Q: And the “Growth Rate” value [3, 12]?
A: 0

Q: How did the “Growth Rate” value [1, 4] turn out when `C[C@H](c1ccc(F)cc1)N(Cc1cccc(C(=O)O)c1)C(=O)c1cnc2ccccc2c1` [PF-05105679] was run?
A: 0

Q: What about the “Growth Rate” value [1, 6] of the same molecule?
A: 0

Q: And the “Growth Rate” value [1, 7]?
A: 1

Q: What about the “Growth Rate” value [1, 9] of the same molecule?
A: 1

Q: What about the “Growth Rate” value [1, 11] of the same molecule?
A: 1

Q: And the “Growth Rate” value [2, 4]?
A: 1

Q: And the “Growth Rate” value [2, 13]?
A: 0

Q: What about the “Growth Rate” value [2, 5] of the same molecule?
A: 0

Q: And the “Growth Rate” value [2, 6]?
A: 1

Q: And the “Growth Rate” value [2, 7]?
A: 1

Q: What about the “Growth Rate” value [2, 8] of the same molecule?
A: 0

Q: What about the “Growth Rate” value [2, 9] of the same molecule?
A: 1

Q: What about the “Growth Rate” value [2, 11] of the same molecule?
A: 1

Q: And the “Growth Rate” value [2, 12]?
A: 0

Q: And the “Growth Rate” value [3, 13]?
A: 0

Q: And the “Growth Rate” value [3, 5]?
A: 0

Q: What about the “Growth Rate” value [3, 6] of the same molecule?
A: 1

Q: And the “Growth Rate” value [3, 7]?
A: 0

Q: What about the “Growth Rate” value [3, 8] of the same molecule?
A: 1

Q: What about the “Growth Rate” value [3, 9] of the same molecule?
A: 0

Q: And the “Growth Rate” value [3, 10]?
A: 1

Q: What about the “Growth Rate” value [3, 11] of the same molecule?
A: 0

Q: What about the “Growth Rate” value [3, 12] of the same molecule?
A: 1
